Source: patent US7595300B2, “7-quinolyl ketolide antibacterial agents” (priority 2005, dated 2009)
In brackets after ≈: the same amount, converted by molar mass. Like-named read-outs stand apart in the source and are kept apart here.

How the values were obtained:
male beagle dogs = experiment: Cardiovascular safety in telemetered dogs, intravenous infusion; assay type: in vivo, dog
Source text: Four male beagle dogs, obtained from Marshall Farms USA, Inc. (North Rose, N.Y.), were surgically instrumented with telemetry transducers (Data Sciences International, type RL11M2-D70-PCT) to assess arterial blood pressure (ABP) and lead II electrocardiogram (ECG) parameters.
The dosing route was an intravenous infusion jugular vein access). The infusion was accomplished using a CADD Prizm® ambulatory infusion pump attached to a jacket worn by the dog. The dose duration for the intravenous infusion was 30 min for all doses administered, except the last dose (30 mg/kg) where the infusion period was extended to 45 min to accommodate the larger dose volume required for this dose. The vehicle dose and diluent for the test article was 0.05-M sodium citrate in sterile water for injection.
There was one treatment group of four non-naïve dogs and the study was comprised of both pharmacokinetic and telemetry phases, as summarized in the dose administration table for compound (III) (Table 16) below. At least one week was given between dosings to allow clearance of the drug.
For the telemetry phase of the study, collection of hemodynamic and lead II ECG data commenced approximately 30 min prior to dosing and ended approximately 6 h post-dose. Systolic blood pressure (SBP), diastolic blood pressure (DBP), HR, and lead II ECG variables (PR interval, QRS duration, RR interval, and QT interval) were acquired continuously from each animal during each dose day recording session. The QT interval was corrected for variations in HR using the Fridericia's QTc interval (QTcF).
Data acquired following treatment with vehicle or compound (III) were extracted at −10, −5, 0, 10, 20, 30, 35, 45, 60, 90, 150, 270, and 390 min relative to the start dose time. For all blood pressure and ECG parameters, data following treatment with compound (III) were compared to the time-matched vehicle dose data. Statistical comparisons were made using a one-way ANOVA for repeated measures, followed by the Dunnett's post-hoc test when statistical significance was detected with the ANOVA. Changes were considered statistically significant when p<0.05.
A complete visual scan of the ECG waveforms from the vehicle, 11 mg/kg dose, and 15 mg/kg dose of compound (III) was conducted. All waveforms were examined for gross changes in waveform morphology and arrhythmogenesis.

S. pyogenes = experiment: MIC, NCCLS broth microdilution, respiratory pathogens; assay type: cell-based; conditions: Streptococcus pyogenes
Method: (§1) Minimum inhibitory concentrations (“MICs”) were determined by the NCCLS broth microdilution procedure for susceptibility testing for bacteria that grow aerobically (National Committee for Clinical Laboratory Standards, 1997. Methods for dilution antimicrobial susceptibility tests for bacteria that grow aerobically, 4th ed. Approved standard. NCCLS Document M7-A4. National Committee for Clinical Laboratory Standards, Villanova, Pa.). Stock solutions were prepared on the day of the test and appropriate aliquots were added to cation adjusted Mueller-Hinton broth (CAMHB, DIFCO) or Haemophilus test media. Two-fold serial dilutions were prepared and added to wells in microtiter plates. Final test concentrations ranged from 8 to 0.004 ug/ml. Broth cultures of bacteria inoculated from growth on overnight plates for all test bacteria except Streptococcus pneumoniae and Haemophilus influenzae were incubated at 35° C. and then adjusted to the Kirby Bauer standard and diluted in CAMHB to achieve a final inoculum concentration of approximately 5×10^5 CFU/ml. Inocula for S. pneumoniae and H. influenzae were prepared by directly suspending colonies from an overnight plate, adjusting the turbidity and diluting as above. S. pneumoniae media was supplemented with 3% lysed horse blood. All plates were incubated in ambient air at 35° C. for 20-24 h for S. pneumoniae and Haemophilus influenzae and 16-20 h for all other bacteria.

M. catarrhalis = experiment: as above; assay type: cell-based; conditions: Moraxella catarrhalis
Method: as §1

Haemophilus influenzae = experiment: as above; assay type: cell-based; conditions: H. influenzae
Method: as §1

Streptococcus pneumoniae = experiment: as above; assay type: cell-based; conditions: S. pneumoniae
Method: as §1

[1] = dog, intravenous 11 and 15 mg/kg
[2] = genotype sensitive, read-out: MIC50
[3] = genotype sensitive, read-out: MIC90

**Q.** Which “effect on mean HR” value (male beagle dogs; dog, intravenous 11 mg/kg) does the source give for `CC1CC(N(C)C)C(O)C(O[C@@H]2[C@@H](C)C(=O)[C@](C)(F)C(=O)O[C@H](CCF)[C@@]3(C)OC(=O)N[C@@H]3[C@@H](C)C(=O)[C@H](C)C[C@@]2(C)OC/C=C/c2ccc3cccnc3c2)O1` (stereo partly drawn) [Compound (III), 6-O-(1-(7-quinolyl)-3-propenyl)-11-amino-11-deoxy-3-(descladinosyl)-3-oxo-2,15-difluoroerythromycin A-11,12-cyclic carbamate] here?
**A.** no effect

**Q.** What about the “effect on the QRS duration” value (male beagle dogs; dog, intravenous 11 mg/kg) of the same molecule?
**A.** no effect

**Q.** And the “effect on mean HR” value (male beagle dogs; dog, intravenous 15 mg/kg, at the 90 and 390 time points)?
**A.** Significant (p<0.05) decreases in mean HR

**Q.** And the “effect on QTcF” value (male beagle dogs; dog, intravenous 30 mg/kg, 35 to 90 min postdose, vs time-matched vehicle)?
**A.** lengthening of the QTcF interval

**Q.** And the “effect on the PR interval” value (male beagle dogs; dog, intravenous 30 mg/kg, 150 to 390 min, p<0.05 at 390 min)?
**A.** increase in the PR interval

**Q.** And the “effect on HR” value (male beagle dogs; dog, intravenous 30 mg/kg, 390 min postdose)?
**A.** statistically significant (p<0.05) reduction in the HR

**Q.** And the “ABP parameters (SBP, DBP, MAP)” value (male beagle dogs; dog, intravenous 11, 15, and 30 mg/kg, during and up to 150 min after infusion)?
**A.** remained relatively unchanged

**Q.** What about the “effect on the QT interval relative to the vehicle control” value (male beagle dogs; dog, intravenous 11, 15, or 30 mg/kg) of the same molecule?
**A.** no significant effects

**Q.** And the “effect on QTcF” value (male beagle dogs; [1])?
**A.** no significant effects

**Q.** And the “effect on the PR interval” value (male beagle dogs; [1])?
**A.** No significant effects

**Q.** What about the “waveform morphology or ECG rhythm” value (male beagle dogs; dog, intravenous 11 or 15 mg/kg) of the same molecule?
**A.** no abnormalities

**Q.** And the “effect on the QRS duration” value (male beagle dogs; dog, intravenous 15 and 30 mg/kg, pre-drug baseline also lower)?
**A.** Significant (p<0.05) decreases in QRS duration

**Q.** What about the RR interval (male beagle dogs; dog, intravenous, study period) of the same molecule?
**A.** remained relatively unchanged

**Q.** What about the “heart rate-corrected QT interval (QTc), FIG. 6” value (male beagle dogs; male beagle dogs, intravenous infusion 11 mg/kg or 15.8 mg/kg over 30 minutes) of the same molecule?
**A.** No significant increase in QTc

**Q.** And the “effect relative to vehicle” value (male beagle dogs; telemetered dogs, 30 mg/kg)?
**A.** no significant effect

**Q.** What about the “effects on cardiac parameters, including QT interval” value (male beagle dogs; telemetered dogs, intravenous infusion up to 15 mg/kg) of the same molecule?
**A.** no effects

**Q.** And the MIC50 (S. pyogenes; genotype ermB)?
**A.** 0.12 µg/mL (≈ 0.15 µM)

**Q.** What about the MIC90 (S. pyogenes; genotype ermB) of the same molecule?
**A.** 1 µg/mL (≈ 1.25 µM)

**Q.** And the MIC50 (S. pyogenes; genotype mef, read-out: MIC50)?
**A.** 0.12 µg/mL (≈ 0.15 µM)

**Q.** What about the MIC90 (S. pyogenes; genotype mef, read-out: MIC90) of the same molecule?
**A.** 0.12 µg/mL (≈ 0.15 µM)

**Q.** And the MIC50 (S. pyogenes; [2])?
**A.** 0.06 µg/mL (≈ 0.0748 µM)

**Q.** And the MIC90 (S. pyogenes; [3])?
**A.** 0.06 µg/mL (≈ 0.0748 µM)

**Q.** And the MIC50 (M. catarrhalis)?
**A.** 0.12 µg/mL (≈ 0.15 µM)

**Q.** And the MIC90 (M. catarrhalis)?
**A.** 0.12 µg/mL (≈ 0.15 µM)

**Q.** What about the MIC50 (Haemophilus influenzae; resistant) of the same molecule?
**A.** > 8 µg/mL

**Q.** And the MIC90 (Haemophilus influenzae; resistant)?
**A.** > 8 µg/mL

**Q.** What about the MIC50 (Haemophilus influenzae; sensitive) of the same molecule?
**A.** 2 µg/mL (≈ 2.49 µM)

**Q.** What about the MIC90 (Haemophilus influenzae; sensitive) of the same molecule?
**A.** 4 µg/mL (≈ 4.99 µM)

**Q.** And the MIC50 (Streptococcus pneumoniae; 20 h, genotype ermB + mef)?
**A.** 0.5 µg/mL

**Q.** And the MIC50 (Streptococcus pneumoniae; genotype ermB)?
**A.** 0.12 µg/mL (≈ 0.15 µM)

**Q.** And the MIC90 (Streptococcus pneumoniae; genotype ermB)?
**A.** 0.12 µg/mL (≈ 0.15 µM)

**Q.** And the MIC90 (Streptococcus pneumoniae; genotype ermB + mef)?
**A.** 1 µg/mL

**Q.** What about the MIC50 (Streptococcus pneumoniae; genotype mef, read-out: MIC50) of the same molecule?
**A.** 0.25 µg/mL (≈ 0.312 µM)

**Q.** And the MIC90 (Streptococcus pneumoniae; genotype mef, read-out: MIC90)?
**A.** 0.25 µg/mL (≈ 0.312 µM)

**Q.** What about the MIC50 (Streptococcus pneumoniae; [2]) of the same molecule?
**A.** 0.03 µg/mL (≈ 0.0374 µM)

**Q.** And the MIC90 (Streptococcus pneumoniae; [3])?
**A.** 0.03 µg/mL (≈ 0.0374 µM)
